Columns and labels:
Assay type in all cases: cell-based, S. cerevisiae
Details in all cases: 1 uM small molecule, difference to activity without small molecule, average of two trials
[1] = biological target: T1, LexA (GSG)2rGR2 / B42 (GSG)2eDHFR (UniProt P06536+P0ABQ4, C656G/F620S); assay: β-galactosidase activity assay, strain V510Y
T1 construct: rat Glucocorticoid Receptor (aa 524-795) with point mutations; expressed in transfected cells; host or cells: S. cerevisiae FY250
T1 sequence (P06536 524-795 F620S/C656G limits assumed): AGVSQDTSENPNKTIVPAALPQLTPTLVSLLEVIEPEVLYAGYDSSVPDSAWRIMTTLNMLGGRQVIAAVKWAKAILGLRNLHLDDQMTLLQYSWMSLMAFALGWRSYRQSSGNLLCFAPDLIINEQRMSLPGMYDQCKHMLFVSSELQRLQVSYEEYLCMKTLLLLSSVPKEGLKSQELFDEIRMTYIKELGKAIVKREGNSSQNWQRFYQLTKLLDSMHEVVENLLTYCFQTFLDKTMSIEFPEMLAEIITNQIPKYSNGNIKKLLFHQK
T1 sequence (P0ABQ4 1-159): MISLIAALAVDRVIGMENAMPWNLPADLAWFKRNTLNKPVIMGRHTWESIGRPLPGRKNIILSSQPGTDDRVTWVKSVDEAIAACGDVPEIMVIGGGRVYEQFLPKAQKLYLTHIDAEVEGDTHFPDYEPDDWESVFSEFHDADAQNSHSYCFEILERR
Excerpt: (§1) Table III explains the components of each strain. Each strain was constructed from the parent yeast strain FY250 and also contains the pMW106 plasmid, which has the LacZ reporter gene that is turned on only in when the LexA DNA binding domain and the B42 activation are brought in tot he vicinity of each other. We use several different strains because we use DHFR from two different species, mDHFR is from murine, while eDHFR is from E. coli. We are asl oable to switch the small moleculebinding domains. For example, the strain containing LexA-eDHFR with B42-rGH2 is a different strain and behaves differently from the strain containing LexA-rGR2 with B42-eDHFR. We also put in short 6 amino acid linkers between the two domains of our protein chimeras and thus these are different strain as well.
(§2) The results in Table IV are averages of two separate trials. Each strain was examined with small molecules and without small molecules. The absolute activity is given as the β-galactisidase activity […]. The average β-galactosidse activity for a strain without small molecule (i.e. the negative control) was about 100 β-galactosidase units.

[2] = biological target: T2, LexA (GSG)2mDHFR / B42 rGR2 (UniProt P00375+P06536, C656G/F620S); assay: β-galactosidase activity assay, strain V502Y
T2 construct: rat Glucocorticoid Receptor (aa 524-795) with point mutations; expressed in transfected cells; host or cells: S. cerevisiae FY250
T2 sequence (P00375 1-187): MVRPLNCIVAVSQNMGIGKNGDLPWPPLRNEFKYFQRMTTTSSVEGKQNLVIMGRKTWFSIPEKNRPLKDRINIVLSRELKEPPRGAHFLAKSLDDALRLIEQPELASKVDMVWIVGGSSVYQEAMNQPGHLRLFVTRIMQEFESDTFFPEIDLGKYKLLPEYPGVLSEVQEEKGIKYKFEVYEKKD
T2 sequence (P06536 524-795 F620S/C656G limits assumed): T1 sequence (P06536 524-795 F620S/C656G limits assumed)
Excerpt: as §1, §2

[3] = biological target: T3, LexA (GSG)2rGR2 / B42 (GSG)2mDHFR (UniProt P00375+P06536, C656G/F620S); assay: β-galactosidase activity assay, strain V512Y
T3 construct: rat Glucocorticoid Receptor (aa 524-795) with point mutations; expressed in transfected cells; host or cells: S. cerevisiae FY250
T3 sequence (P06536 524-795 F620S/C656G limits assumed): T1 sequence (P06536 524-795 F620S/C656G limits assumed)
T3 sequence (P00375 1-187): T2 sequence (P00375 1-187)
Excerpt: as §1, §2

[4] = biological target: T4, LexA eDHFR / B42 gly6rGR2 (UniProt P06536+P0ABQ4, C656G/F620S); assay: β-galactosidase activity assay, strain V375Y
T4 construct: rat Glucocorticoid Receptor (aa 524-795) with point mutations; expressed in transfected cells; host or cells: S. cerevisiae FY250
T4 sequence (P0ABQ4 1-159): T1 sequence (P0ABQ4 1-159)
T4 sequence (P06536 524-795 F620S/C656G limits assumed): T1 sequence (P06536 524-795 F620S/C656G limits assumed)
Excerpt: as §1, §2

[5] = biological target: T5, LexA (GSG)2rGR2 / B42 eDHFR (UniProt P06536+P0ABQ4, C656G/F620S); assay: β-galactosidase activity assay, strain V506Y
T5 construct: expressed in transfected cells; host or cells: S. cerevisiae FY250 with pMW106 lacZ reporter
T5 sequence (P06536 524-795 F620S/C656G limits assumed): T1 sequence (P06536 524-795 F620S/C656G limits assumed)
T5 sequence (P0ABQ4 1-159): T1 sequence (P0ABQ4 1-159)
Excerpt: as §1, §2

[6] = biological target: T6, LexA (GSG)2eDHFR / B42 rGR2 (UniProt P06536+P0ABQ4, C656G/F620S); assay: β-galactosidase activity assay, strain V498Y
T6 construct: rat Glucocorticoid Receptor (aa 524-795) with point mutations; expressed in transfected cells; host or cells: S. cerevisiae FY250
T6 sequence (P0ABQ4 1-159): T1 sequence (P0ABQ4 1-159)
T6 sequence (P06536 524-795 F620S/C656G limits assumed): T1 sequence (P06536 524-795 F620S/C656G limits assumed)
Excerpt: as §1, §2

LexA eDHFR / B42 rGR2 = biological target: T7, LexA eDHFR / B42 rGR2 (UniProt P06536+P0ABQ4, C656G/F620S); assay: β-galactosidase activity assay, strain V493Y
T7 construct: rat Glucocorticoid Receptor (aa 524-795) with point mutations; expressed in transfected cells; host or cells: S. cerevisiae FY250
T7 sequence (P0ABQ4 1-159): T1 sequence (P0ABQ4 1-159)
T7 sequence (P06536 524-795 F620S/C656G limits assumed): T1 sequence (P06536 524-795 F620S/C656G limits assumed)
Excerpt: as §1, §2

[7] = biological target: T8, LexA rGR2 / B42 (GSG)2mDHFR (UniProt P00375+P06536, C656G/F620S); assay: β-galactosidase activity assay, strain V511Y
T8 construct: expressed in transfected cells; host or cells: S. cerevisiae FY250 with pMW106 lacZ reporter
T8 sequence (P06536 524-795 F620S/C656G limits assumed): T1 sequence (P06536 524-795 F620S/C656G limits assumed)
T8 sequence (P00375 1-187): T2 sequence (P00375 1-187)
Excerpt: as §1, §2

[8] = biological target: T9, LexA (GSG)2mDHFR / B42 (GSG)rGR2 (UniProt P00375+P06536, C656G/F620S); assay: β-galactosidase activity assay, strain V504Y
T9 construct: rat Glucocorticoid Receptor (aa 524-795) with point mutations; expressed in transfected cells; host or cells: S. cerevisiae FY250
T9 sequence (P00375 1-187): T2 sequence (P00375 1-187)
T9 sequence (P06536 524-795 F620S/C656G limits assumed): T1 sequence (P06536 524-795 F620S/C656G limits assumed)
Excerpt: as §1, §2

[9] = biological target: T10, LexA (GSG)2mDHFR / B42 gly6rGR2 (UniProt P00375+P06536, C656G/F620S); assay: β-galactosidase activity assay, strain V503Y
T10 construct: expressed in transfected cells; host or cells: S. cerevisiae FY250 with pMW106 lacZ reporter
T10 sequence (P00375 1-187): T2 sequence (P00375 1-187)
T10 sequence (P06536 524-795 F620S/C656G limits assumed): T1 sequence (P06536 524-795 F620S/C656G limits assumed)
Excerpt: as §1, §2

C[C@@H]1C[C@H]2C3CCC4=CC(=O)C=C[C@]4(C)[C@@]3(F)[C@@H](O)C[C@]2(C)[C@@]1(O)C(=O)NCCSCc1cccc(CSCC[C@H](NC(=O)c2ccc(N(C)Cc3cnc4nc(N)nc(N)c4n3)cc2)C(=O)O)c1 (stereo partly shown) [DM1] was tested, and the B-gal activity [1] was 601 β-galactosidase units, the B-gal activity [2] was 21 β-galactosidase units and the B-gal activity [3] was −1 β-galactosidase units. For the same compound, the B-gal activity [4] was 4978 β-galactosidase units, the B-gal activity [5] was 519 β-galactosidase units and the B-gal activity [6] was 4735 β-galactosidase units. The B-gal activity (LexA eDHFR / B42 rGR2) was 5753 β-galactosidase units, the B-gal activity [7] was −113 β-galactosidase units and the B-gal activity [8] was 12 β-galactosidase units. For the same compound, the B-gal activity [9] was −5 β-galactosidase units.

From patent US7419780B2, “Methods and assays for screening protein targets” (The Trustees of Columbia University in the City of New York, priority 2000, dated 2008)
